pIC50: −log10 of the molar value.
Assays:
MAPKAPK5 = target: T1, MAPKAPK5 (Homo sapiens, UniProt Q8IW41); assay: MAPKAP-K5 FlashPlate kinase assay; assay type: biochemical; details: 0.6 μM ATP, 30 minutes, room temperature
T1 sequence (Q8IW41 1-471 isoform Q8IW41-2): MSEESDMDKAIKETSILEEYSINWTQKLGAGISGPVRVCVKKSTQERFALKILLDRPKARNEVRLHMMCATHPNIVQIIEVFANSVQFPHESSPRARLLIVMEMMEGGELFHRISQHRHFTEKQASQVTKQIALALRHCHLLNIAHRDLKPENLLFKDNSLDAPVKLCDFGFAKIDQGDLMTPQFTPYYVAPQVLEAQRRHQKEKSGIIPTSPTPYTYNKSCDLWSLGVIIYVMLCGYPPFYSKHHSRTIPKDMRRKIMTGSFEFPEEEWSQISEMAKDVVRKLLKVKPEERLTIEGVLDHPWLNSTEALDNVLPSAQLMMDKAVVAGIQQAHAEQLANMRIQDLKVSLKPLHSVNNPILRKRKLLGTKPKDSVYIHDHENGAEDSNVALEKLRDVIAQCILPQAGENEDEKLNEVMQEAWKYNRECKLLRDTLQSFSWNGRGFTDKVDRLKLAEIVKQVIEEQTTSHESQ
Method: MAPKAP-K5 reactions are performed in FlashPlate format using 0.1 or 0.2 μCi 33P-ATP; 0.6 μM ATP; 1 mU MAPKAP-K5; 3 μM MAPKAP-K5 peptide substrate, incubated at room temperature for 30 minutes.
The MAPKAP-K5 kinase reaction is performed in a 384 well polypropylene plate (Matrix Technologies) and then transferred to a streptavidin-coated 384 well flashplate (Perkin-Elmer). To wells containing 2 μL test compound or standard inhibitor, 13 μL Enzyme mix or diluent are added using a Hydra (Robbins Scientific). Reactions are started by addition of 10 μL of [2.5×] substrate cocktail using a Multidrop (Thermo-Labsystems), to give final concentrations in the assay of: • 1 mU MAPKAP-K5 • 3 μM MAPKAP-K5 peptide substrate • 0.6 μM ATP • 0.004 μCi [33P]-γ-ATP/μL • 1× reaction buffer
Plates are incubated at room temperature for 30 minutes. Reactions are terminated by the addition of 25 μL EDTA (50 mM) to each well using a Micro-fill (Biotek). Reactions are transferred to a streptavidin-coated flashplate using a Zymark robotic system. Plates are incubated for 60 minutes at room temperature. All wells are washed 3 times with 100 μl phosphate buffered saline using a Tecan plate washer. Radioactivity is determined by scintillation counting of the flashplate (empty wells) on a Packard TopCount.
Enzyme Mix: • Enzyme • 50 mM Tris Hcl (pH 7.5) • 0.1 mM EGTA • 2 mM DTT • 1 mg/mL BSA
Reaction Buffer: • 50 mM Tris Hcl (pH 7.5) • 0.1 mM EGTA • 10 mM Magnesium acetate • 2 mM DTT

[1] = system: MMP13 expression in SW1353 chondrosarcoma cell line; assay: MMP13 assay: IL-1/OSM-driven MMP13 expression in SW1353 cells (MMP13 ELISA); assay type: cell-based; details: Homo sapiens, IL-1β and OSM, 48 hr
Method: The protocol of the MMP13 ELISA is described in section 4.1, then testing of compounds on release of IL-1/OSM-driven MMP13 expression in SW1353 chondrosarcoma cell line is described in section 4.2.
A 384 well format ELISA for measurement of MMP13 was developed. Various primary antibodies were tested, as well as various ELISA protocols. The following protocol is developed and validated to measure MMP13 levels in supernatant of cell cultures in 384 well plates.
Black maxisorb 384 well plates (Nunc 460518) are coated with 35 μl of a buffered solution containing 1.5 μg/mL anti-MMP13 antibody MAB511 (R&D systems). The antibody is diluted in carbonate-bicarbonate coating buffer (1.59 g Na2CO3 (Sigma S-7795) and 2.93 g NaHCO3 (Sigma S-5761) in 1 L MilliQ water, adjusted to pH 9.6). After overnight incubation at 4° C., wells are washed twice with 100 μL PBST (80 g NaCl, 2 g KCl (Sigma), 11.5 g Na2HPO4.7H2O and 2 g KH2PO4 in 10 L milliQ water; pH 7.4+0.05% Tween-20 (Sigma)) and blocked with 100 μL/well blocking buffer (5% non fat dry milk in PBS). After overnight incubation at 4° C., wells are washed twice with 100 μL PBST. The PBST is removed and 35 μL of sample is transferred to the ELISA plates. After 4 hr incubation at RT, plates are washed twice with PBST and incubated for 1 hr at 37° C. with 35 μL/well 1.5 mM APMA solution (a 10 mM APMA stock solution is prepared one day before (35.18 mg APMA (Sigma A-9563) in 10 mL 0.1M NaOH (Merck 1.06469.1000) and stored at 4° C. Before use, the 10 mM APMA stock solution is diluted to 1.5 mM in 1×APMA buffer (10× APMA buffer: 500 mM Tris (Roche 708976), 50 mM CaCl2 (Sigma C-5080), […] ZnCl2 (Sigma Z-0173), 1.5 M NaCl (Calbiochem 567441), 0.5% Brij35 (Sigma 430 AG-6) and adjust to pH 7.0). After activation of MMP13 by APMA, plates are washed again two times with 100 μL PBST/well and 35 μL of substrate solution is added to each well. Substrate solution is prepared as follows: OmniMMP Fluorescent substrate (Biomol P-126) stock solution (2 mM in DMSO, stored at −20° C.) is diluted in 1× OmniMMP buffer (10× OmniMMP buffer: 500 mM Hepes (Sigma H4034), 100 mM CaCl2 (Sigma C5080), 0.5% Brij35 (Sigma 430 AG-6; adjusted to pH 7.0) to a final concentration of 0.01 mM. After an overnight incubation at 37° C., the active MMP13 in the sample has cleaved the substrate and released fluorescence. Readout is performed on the EnVision (Perkin Elmer) using 320 nm excitation/405 nm emission filters.
Human chondrosarcoma cell line SW1353 was acquired from ATCC and grown in DMEM supplemented with 10% heat-inactivated FBS and 1× penicillin/streptomycin (Invitrogen) in a humidified 5% CO2 incubator at 37° C. Aliquots of the cells were frozen and cryopreserved in liquid nitrogen. Starting from a cryopreserved aliquot, cells are further grown by sub-culturing at a 1/5-1/8 ratio twice a week by trypsinisation.
Starting from the compound master stocks (all at 10 mM concentration in 100% DMSO) a 3-fold serial dilution is made in 96-well plates in 100% DMSO. Then, plates are futher diluted 50-fold in M199 medium supplemented with 1% heat-inactivated FBS to obtain an intermediate work stock.
At day 1, SW1353 cells are seeded in 96-well plates (flat bottom, tissue culture treated, Greiner) at a density of 15000 cells/well in 120 μL growth medium. The next day, 15 μL compound out of the intermediate work stock is added. After an incubation period of 60 minutes, which allows the compounds to equilibrate and enter the cells, cells are stimulated with a mixture of IL-1β and OSM, added in a volume of 15 μL to obtain final concentrations of 1 ng/ml IL-1β and 25 ng/ml OSM. For that, stocks of IL-1 (10 μg/ml) and OSM (25 μg/ml) (both PeproTech) were diluted to 10 ng/ml and 250 ng/ml respectively, in M199 medium supplemented with 1% FBS. After incubation for 48 hr, the cell supernatant was harvested and an appropriate dilution was processed in the MMP13 ELISA as described above, delivering raw data (RFU: relative fluorescence units). […]

[2] = system: MMP1 expression by activated synovial fibroblasts (RASFs); assay: 'MMP assay': complex trigger-induced MMP1 expression by synovial fibroblasts (MMP1 ELISA); assay type: cell-based; details: Homo sapiens, Fibroblast; complex trigger activated SFs, 48 hrs, FIG. 3; read-out: IC50 value, reduction of MMP1 expression by SFs
Method: A 384-well format ELISA for measurement of MMP1 is developed. Various primary antibodies are tested, as well as various ELISA protocols. The following protocol is developed and validated to measure MMP1 levels in SF supernatant in 384 well plates: white Lumitrac 600 384 well plates (Greiner) are coated with 2 μg/mL anti-MMP1 antibody MAB1346 (Chemicon). The antibody is diluted in buffer 40 (1.21 g Tris base (Sigma), 0.58 g NaCl (Calbiochem) and 5 ml 10% NaN3 (Sigma) in 1 L milliQ water and adjusted to pH 8.5). After overnight incubation at 4° C., plates are washed with PBS (80 g NaCl, 2 g KCl (Sigma), 11.5 g Na2HPO4.7H2O and 2 g KH2PO4 in 10 L milliQ; pH 7.4) and blocked with 100 μL/well Casein buffer (2% Casein (VWR International) in PBS). Next day, casein buffer is removed from ELISA plates and replaced by 50 μL/well EC buffer (4 g casein, 2.13 g Na2HPO4 (Sigma), 2 g bovine albumin (Sigma), 0.69 g NaH2PO4.H2O (Sigma), 0.5 g CHAPS (Roche), 23.3 g NaCl, 4 ml 0,5 M EDTA pH 8 (Invitrogen), 5 ml 10% NaN3 in 1 L milliQ and adjusted to pH 7.0). 0.25 mM DTT (Sigma) is added to the thawed samples plates. After removal of the EC buffer, 20 μL of sample is transferred to the ELISA plates. After overnight incubation at 4° C. plates are washed twice with PBS and once with PBST (PBS with 0.05% Tween-20 (Sigma)) and incubated with 35 μL/well biotinylated anti-MMP1 antibody solution (R&D). This secondary antibody is diluted in buffer C (0.82 g NaH2PO4.H2O, 4.82 g Na2HPO4, 46.6 g NaCl, 20 g bovine albumin and 4 mL 0,5M EDTA pH 8 in 2 L milliQ and adjusted to pH 7.0) at a concentration of 5 μg/mL. After 2 h of incubation at RT, plates are washed as described above and incubated with 50 μL/well streptavidin-HRP conjugate (Biosource). Streptavidin-HRP conjugate is diluted in buffer C at a concentration of 0.25 μg/mL. After 45 min, plates are washed as described above and incubated for 5 min with 50 μL/well BM Chem ELISA Substrate (Roche). Readout is performed on the Luminoscan Ascent Luminometer (Labsystems) with an integration time of 200 msec or with an Envision reader (Perkin Elmer).
The increase of MMP1 expression by SFs upon treatment with cytokines relevant in the field of RA (TNF-α, IL1β and OSM) or a combination thereof is shown in FIG. 2 as white bars. For this experiment, SFs are seeded in 96 well plates, 3,000 cells/well. 24 h later, the medium is changed to M199 medium supplemented with 1% FBS. One day after the medium change, cytokines or combinations thereof are added to the cultures, each cytokine being added to a final concentration of 25 ng/mL. 72 h after cytokine addition, the supernatant is collected and processed in the MMP1 ELISA as described in the protocol given above. In parallel with this experiment, SFs are triggered, using the same protocol, with the supernatant of THP1 cells (2-fold diluted in M199+1% FBS) treated with the same cytokines or combinations of cytokines for 48 h in M199 medium+1% FBS. The induction of the MMP1 expression by SFs triggered with the supernatants of TNF-α-treated THP1 cells is stronger (>4.5 fold induction) as compared to the SFs triggered with recombinant TNF-α alone (3-fold induction) and almost equals the 5-fold induction obtained by a mixture of 3 purified cytokines (TNF-α, IL1βb, OSM). […] As the role of TNF-α in the RA pathogenesis is validated (TNF-α-blockers such as Infliximab and Etanercept show some efficacy in the treatment of RA patients) and the THP-1 cells are representative for monocytes/macrophages present in the joint of RA patients, the TNF-α-based trigger mixture prepared by contacting THP-1 cells with TNF-α will contain factors present in the joints of RA patients and subsequently is relevant to RA. This TNF-α-based complex trigger, further referred to as the ‘complex trigger’, will further be used as basis for the ‘MMP assay’. […]

TNF alpha = assay: Septic shock model (LPS-induced TNF release); assay type: in vivo, BALB/cJ female mice; details: after injection of LPS, benchmark, FIG. 7
Method: Six BALB/cJ female mice (20 g) per group are treated at the intended dosing once, po. Thirty minutes later, LPS (15 μg/kg; E. coli serotype 0111:B4) is injected ip. Ninety minutes later, mice are euthanized and blood is collected. Circulating TNF alpha levels are determined using commercially available ELISA kits. Dexamethasone (5 μg/kg) is used as a reference anti-inflammatory compound.

Compound | pIC50 (MAPKAPK5) | pIC50 [1] | pIC50 [2] | percentage inhibition of TNF alpha release (TNF alpha) [%]
CC(C)N1C[C@@H]2C[C@H]1CN2c1ccc(Nc2ncc(-c3coc(C(N)=O)c3)n3ncnc23)cn1 [Compound 7, 4-{8-(6-((1S,4S)-5-isopropyl-2,5-diazabicyclo[2.2.1]heptan-2-yl)pyridin-3-ylamino)-[1,2,4]triazolo[1,5-a]pyrazin-5-yl}-furan-2-carboxamide] | 7.00 to 11.00 | 6.30 to 9.00 |  | 
CC(C)N1CC2CCC(C1)N2c1ccc(Nc2ncc(-c3coc(C(N)=O)c3)n3ncnc23)cc1 [Compound 13, 4-{8-(4-(3-isopropyl-3,8-diazabicyclo[3.2.1]octan-8-yl)phenylamino)[1,2,4]-triazolo[1,5-a]pyrazin-5-yl}-furan-2-carboxamide] | 7.00 to 11.00 | < 6.00 |  | 
C[C@@H]1C[C@H]2[C@@H]3CCC4=CC(=O)C=C[C@]4(C)[C@@]3(F)[C@@H](O)C[C@]2(C)[C@@]1(O)C(=O)CO [dexamethasone, reference compound] |  |  | ~9.00 | 100
